Results reported in ChEMBL document CHEMBL4393669, “D2 Dopamine Receptor G Protein-Biased Partial Agonists Based on Cariprazine” (J Med Chem, 2019).
Activity calls are given as the source filed them. The calls are words filed in the database; no cut-off is given here.

How the values were obtained:
[1] = target: D(2) dopamine receptor (Homo sapiens) (UniProt P14416)
Mus musculus = species: Mus musculus; details: C57

Sequence of D(2) dopamine receptor (Homo sapiens) (P14416 whole entry): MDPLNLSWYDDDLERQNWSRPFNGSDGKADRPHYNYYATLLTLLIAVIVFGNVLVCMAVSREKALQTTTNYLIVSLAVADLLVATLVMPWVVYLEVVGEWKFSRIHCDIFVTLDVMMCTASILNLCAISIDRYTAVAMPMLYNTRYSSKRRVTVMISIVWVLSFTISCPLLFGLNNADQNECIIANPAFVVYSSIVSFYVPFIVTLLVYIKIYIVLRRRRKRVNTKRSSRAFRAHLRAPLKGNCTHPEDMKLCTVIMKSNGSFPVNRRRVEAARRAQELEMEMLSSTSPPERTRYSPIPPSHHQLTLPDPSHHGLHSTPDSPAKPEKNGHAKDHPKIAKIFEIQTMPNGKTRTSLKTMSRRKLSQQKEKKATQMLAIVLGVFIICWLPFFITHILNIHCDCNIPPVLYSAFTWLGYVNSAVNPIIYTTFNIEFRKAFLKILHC

Row | SMILES | pEC50 [1] | Occ (Mus musculus)
1 | CN(C)C(=O)Nc1ccc(CCN2CCc3ccccc3C2)cc1 | inactive | 
2 | CN(C)C(=O)N[C@H]1CC[C@H](CN2CCc3ccccc3C2)CC1 | inactive | 
3 | CN(C)C(=O)NCCCCCN1CCc2ccccc2C1 | inactive | 
4 | CN(C)C(=O)N[C@H]1CC[C@H](CCN2CCc3cccc(Cl)c3C2)CC1 |  | Dose-dependent effect
